The test system of this test is fulvestrant-resistant MCF7:5C-FR cells. Kind of test: Fulvestrant-resistant breast cancer cell viability (cell proliferation) assay. In kind it is cell-based. Particulars: 120 h, growth inhibition in fulvestrant-resistant MCF-7:CFR cells, 120 hrs. An outline of the steps:
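Cells were treated the day after seeding with compounds at 3 nM to 10 uM for 120 h, with 0.1% DMSO vehicle and 1 uM JQ1 as positive control. Hoechst 33342-stained (5 μg/ml, 90 min, 37 C) nuclei were imaged and counted, and cell numbers normalized to vehicle.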

On to `C=CC(=O)Cn1cc(-c2cc(NS(C)(=O)=O)c3ccn(Cc4ccc(F)cc4)c3c2)c2ccnc(O)c21` [Compound 88, N-(1-(4-fluorobenzyl)-6-(7-hydroxy-1-(2-oxobut-3-en-1-yl)-1H-pyrrolo[2,3-c]pyridin-3-yl)-1H-indol-4-yl)methanesulfonamide], for which the concentration for half-maximal inhibition (IC50) is less than 1 µM. On to `CCS(=O)(=O)Nc1cc(-c2cn(CCCl)c3c(O)nccc23)cc2c1ccn2Cc1ccccc1` [Compound 95, N-(1-benzyl-6-(1-(2-chloroethyl)-7-hydroxy-1H-pyrrolo[2,3-c]pyridin-3-yl)-1H-indol-4-yl)ethanesulfonamide], for which the concentration for half-maximal inhibition (IC50) is greater than 0.1 µM. For the compound `Cn1cc(-c2cn(CC(N)=O)c3ccc(-c4ccc(F)cc4)cc23)c2ccnc(O)c21` [Compound 16, 2-(5-(4-fluorophenyl)-3-(7-hydroxy-1-methyl-1H-pyrrolo[2,3-c]pyridin-3-yl)-1H-indol-1-yl)acetamide], the IC50 is greater than 1 µM. As to `CCS(=O)(=O)Nc1cc(-c2cn(C)c3c(=O)[nH]ccc23)cc2c1ccn2C(C)(c1cnccn1)c1cnccn1` [Compound 76, N-(1-(1,1-di(pyrazin-2-yl)ethyl)-6-(7-hydroxy-1-methyl-1H-pyrrolo[2,3-c]pyridin-3-yl)-1H-indol-4-yl)ethanesulfonamide], the concentration for half-maximal inhibition (IC50) was less than 1 µM. `Cn1ccc2ccnc(O)c21` [Compound 1, 1-methyl-1H-pyrrolo[2,3-c]pyridin-7-ol] returned an IC50 greater than 5 µM.

Compound `CCS(=O)(=O)Nc1cc(-c2cn(C)c3c(O)nccc23)cc2c1cnn2C(C)(c1ccccn1)c1ccccn1` [Compound 63, N-(1-(1,1-di(pyridin-2-yl)ethyl)-6-(7-hydroxy-1-methyl-1H-pyrrolo[2,3-c]pyridin-3-yl)-1H-indazol-4-yl)ethanesulfonamide] registered an IC50 of less than 1 µM.

With `CCS(=O)(=O)Nc1cc(-c2cn(CCCl)c3c(O)nccc23)cc2c1ccn2Cc1ccc(F)cc1Cl` [Compound 82, N-(1-(2-chloro-4-fluorobenzyl)-6-(1-(2-chloroethyl)-7-hydroxy-1H-pyrrolo[2,3-c]pyridin-3-yl)-1H-indol-4-yl)ethanesulfonamide], the IC50 was greater than 1 µM. `CCS(=O)(=O)c1cc(-c2cn(C)c3c(=O)[nH]ccc23)cc2c1ccn2C(C)(c1ccccn1)c1ccccn1` [Compound 129, 3-(1-(1,1-di(pyridin-2-yl)ethyl)-4-(ethylsulfonyl)-1H-indol-6-yl)-1-methyl-1,6-dihydro-7H-pyrrolo[2,3-c]pyridin-7-one] displayed an IC50 of less than 1 µM.

Compound `Cn1cc(-c2cc(C(C)(C)O)c3ccn(C(C)(c4nccs4)c4nccs4)c3c2)c2cc[nH]c(=O)c21` [Compound 111, 3-(1-(1,1-di(thiazol-2-yl)ethyl)-4-(2-hydroxypropan-2-yl)-1H-indol-6-yl)-1-methyl-1,6-dihydro-7H-pyrrolo[2,3-c]pyridin-7-one] registered an IC50 of less than 1 µM. Regarding `Cn1cc(-c2cc(NS(C)(=O)=O)c3ccn(Cc4cccc(F)c4)c3c2)c2cc[nH]c(=O)c21` [Compound 100, N-(1-(3-fluorobenzyl)-6-(1-methyl-7-oxo-6,7-dihydro-1H-pyrrolo[2,3-c]pyridin-3-yl)-1H-indol-4-yl)methanesulfonamide], the IC50 is less than 1 µM. In turn, `CS(=O)(=O)Nc1cc(-c2cn(CC(=O)CCl)c3c(O)nccc23)cc2c1ccn2Cc1ccccc1` [Compound 99, N-(1-benzyl-6-(1-(3-chloro-2-oxopropyl)-7-hydroxy-1H-pyrrolo[2,3-c]pyridin-3-yl)-1H-indol-4-yl)methanesulfonamide] showed an IC50 of less than 1 µM.

On to `CCS(=O)(=O)Nc1cc(-c2cn(CCCl)c3c(O)nccc23)cc2c1ccn2Cc1ccc(F)cc1C` [Compound 81, N-(6-(1-(2-chloroethyl)-7-hydroxy-1H-pyrrolo[2,3-c]pyridin-3-yl)-1-(4-fluoro-2-methylbenzyl)-1H-indol-4-yl)ethanesulfonamide], for which the IC50 was greater than 0.1 µM. With `CCS(=O)(=O)Nc1cc(-c2cn(C)c3c(=O)[nH]ccc23)cc2c1ccn2C(C)(c1nccn1C)c1nccn1C` [Compound 75, N-(1-(1,1-bis(1-methyl-1H-imidazol-2-yl)ethyl)-6-(7-hydroxy-1-methyl-1H-pyrrolo[2,3-c]pyridin-3-yl)-1H-indol-4-yl)ethanesulfonamide], the 50% inhibitory concentration (IC50) is less than 1 µM.

Compound `Cn1cc(-c2cc(C(C)(C)O)c3ccn(CC4(C)COC4)c3c2)c2cc[nH]c(=O)c21` [Compound 105, 3-(4-(2-hydroxypropan-2-yl)-1-((3-methyloxetan-3-yl)methyl)-1H-indol-6-yl)-1-methyl-1,6-dihydro-7H-pyrrolo[2,3-c]pyridin-7-one] displayed a half-inhibitory concentration (IC50) of less than 1 µM. `CC(C)C(=O)Nc1cccc2c1cc(-c1cn(C)c3c(O)nccc13)n2[C@H](c1ccccc1)C1CCOCC1` [Compound 125, (S)-N-(2-(7-hydroxy-1-methyl-1H-pyrrolo[2,3-c]pyridin-3-yl)-1-(phenyl(tetrahydro-2H-pyran-4-yl)methyl)-1H-indol-4-yl)isobutyramide] gave a half-maximal inhibitory concentration (IC50) of less than 1 µM. In turn, `CCS(=O)(=O)Nc1cc(-c2cn(C)c3c(O)nccc23)cc2c1ccn2[C@@H](c1ccccc1)C1CCOCC1` [Compound 92, (R)-N-(6-(7-hydroxy-1-methyl-1H-pyrrolo[2,3-c]pyridin-3-yl)-1-(phenyl(tetrahydro-2H-pyran-4-yl)methyl)-1H-indol-4-yl)ethanesulfonamide] showed a concentration for half-maximal inhibition (IC50) of less than 1 µM. To `CCS(=O)(=O)Nc1cc(-c2cn(CCCl)c3c(O)nccc23)cc2c1ccn2Cc1c(C)cc(F)cc1C` [Compound 83, N-(6-(1-(2-chloroethyl)-7-hydroxy-1H-pyrrolo[2,3-c]pyridin-3-yl)-1-(4-fluoro-2,6-dimethylbenzyl)-1H-indol-4-yl)ethanesulfonamide] belongs greater than 1 µM; to `CCS(=O)(=O)c1cccc2c1cc(-c1cn(C)c3c(O)nccc13)n2[C@H](c1ccccc1)C1CCOCC1` [Compound 120, (S)-3-(4-(ethylsulfonyl)-1-(phenyl(tetrahydro-2H-pyran-4-yl)methyl)-1H-indol-2-yl)-1-methyl-1H-pyrrolo[2,3-c]pyridin-7-ol], less than 1 µM; to `Cn1cc(-c2cc(C(C)(C)O)c3ccn(C(C)(c4cnccn4)c4cnccn4)c3c2)c2cc[nH]c(=O)c21` [Compound 109, 3-(1-(1,1-di(pyrazin-2-yl)ethyl)-4-(2-hydroxypropan-2-yl)-1H-indol-6-yl)-1-methyl-1,6-dihydro-7H-pyrrolo[2,3-c]pyridin-7-one], less than 1 µM. `CCS(=O)(=O)Nc1cccc2c1nc(-c1cn(C)c3c(O)nccc13)n2Cc1c(C)cc(F)cc1C` [Compound 42, N-(1-(4-fluoro-2,6-dimethylbenzyl)-2-(7-hydroxy-1-methyl-1H-pyrrolo[2,3-c]pyridin-3-yl)-1H-benzo[d]imidazol-4-yl)ethanesulfonamide]: the IC50 was less than 1 µM.

For the compound `CCS(=O)(=O)Nc1cc(-c2cn(C)c3c(O)nccc23)cc2c1ccn2Cc1cc(Cl)cc(OCCN(C)C)c1` [Compound 56, N-(1-(3-chloro-5-(2-(dimethylamino)ethoxy)benzyl)-6-(7-hydroxy-1-methyl-1H-pyrrolo[2,3-c]pyridin-3-yl)-1H-indol-4-yl)ethanesulfonamide], the concentration for half-maximal inhibition (IC50) is greater than 0.1 µM. Consider `CCS(=O)(=O)Nc1cc(-c2cn(C)c3c(O)nccc23)cc2c1ccn2Cc1ccc(Cl)c(Cl)c1` [Compound 50, N-(1-(3,4-dichlorobenzyl)-6-(7-hydroxy-1-methyl-1H-pyrrolo[2,3-c]pyridin-3-yl)-1H-indol-4-yl)ethanesulfonamide], for which the concentration for half-maximal inhibition (IC50) was less than 1 µM. With `CCS(=O)(=O)Nc1cc(-c2cn(C)c3c(O)nccc23)cc2c1ccn2Cc1ccc(O)c(Cl)c1` [Compound 54, N-(1-(3-chloro-4-hydroxybenzyl)-6-(7-hydroxy-1-methyl-1H-pyrrolo[2,3-c]pyridin-3-yl)-1H-indol-4-yl)ethanesulfonamide], the IC50 was greater than 0.1 µM.

Regarding `CCS(=O)(=O)Nc1cc(-c2cn(C)c3c(O)nccc23)cc2c1ccn2Cc1cc(Cl)ccc1Cl` [Compound 52, N-(1-(2,5-dichlorobenzyl)-6-(7-hydroxy-1-methyl-1H-pyrrolo[2,3-c]pyridin-3-yl)-1H-indol-4-yl)ethanesulfonamide], the IC50 was less than 1 µM. In turn, `Cn1cc(C(=O)c2ccccc2Cl)c2ccnc(O)c21` [Compound 6, (2-chlorophenyl)(7-hydroxy-1-methyl-1H-pyrrolo[2,3-c]pyridin-3-yl)methanone] displayed an IC50 greater than 5 µM. `Cn1cc(-c2c[nH]c3ccc(Br)cc23)c2ccnc(O)c21` [Compound 19, 3-(5-bromo-1H-indol-3-yl)-1-methyl-1H-pyrrolo[2,3-c]pyridin-7-ol] returned a concentration for half-maximal inhibition (IC50) greater than 1 µM. For the compound `CCS(=O)(=O)Nc1cccc2c1nc(-c1cn(C)c3c(O)nccc13)n2Cc1ccc(F)cc1F` [Compound 43, N-(1-(2,4-difluorobenzyl)-2-(7-hydroxy-1-methyl-1H-pyrrolo[2,3-c]pyridin-3-yl)-1H-benzo[d]imidazol-4-yl)ethanesulfonamide], the IC50 was less than 1 µM. In the case of `CS(=O)(=O)Nc1cc(-c2cn(CC3CO3)c3c(O)nccc23)cc2c1ccn2Cc1ccc(F)cc1` (stereo not drawn) [Compound 89, N-(1-(4-fluorobenzyl)-6-(7-hydroxy-1-(oxiran-2-ylmethyl)-1H-pyrrolo[2,3-c]pyridin-3-yl)-1H-indol-4-yl)methanesulfonamide], the IC50 is less than 1 µM. `Cn1cc(-c2cc3c(C(C)(C)O)cccc3n2[C@@H](c2ccccc2)C2CCOCC2)c2ccnc(O)c21` [Compound 116, (R)-3-(4-(2-hydroxypropan-2-yl)-1-(phenyl(tetrahydro-2H-pyran-4-yl)methyl)-1H-indol-2-yl)-1-methyl-1H-pyrrolo[2,3-c]pyridin-7-ol]: the 50% inhibitory concentration (IC50) is less than 1 µM. Take `CCC(c1ccccn1)(c1ccccn1)n1c(-c2cn(C)c3c(O)nccc23)nc2c(NS(=O)(=O)CC)cccc21` [Compound 127, N-(1-(1,1-di(pyridin-2-yl)propyl)-2-(7-hydroxy-1-methyl-1H-pyrrolo[2,3-c]pyridin-3-yl)-1H-benzo[d]imidazol-4-yl)ethanesulfonamide]: the half-inhibitory concentration (IC50) is less than 1 µM.

One may read the IC50 as the concentration at which inhibition is half-maximal. A higher IC50 goes with lower potency.
